Data taken from article PMC5679629, “Flavin-containing monooxygenase 3 (FMO3) role in busulphan metabolic pathway” (PLoS ONE, 2017).

Assays:
Experiment in all cases: THT disappearance with recombinant cDNA-expressed enzyme microsomes
Type in all cases: in vitro ADME
Conditions in all cases: 25μM THT, 35pmol CYP/mL
[1] = target: T1, CYP1A2 (Homo sapiens, UniProt P05177)
T1 construct: purchased BD Biosciences; host or cells: baculovirus infected insect cells
T1 sequence (P05177 1-516): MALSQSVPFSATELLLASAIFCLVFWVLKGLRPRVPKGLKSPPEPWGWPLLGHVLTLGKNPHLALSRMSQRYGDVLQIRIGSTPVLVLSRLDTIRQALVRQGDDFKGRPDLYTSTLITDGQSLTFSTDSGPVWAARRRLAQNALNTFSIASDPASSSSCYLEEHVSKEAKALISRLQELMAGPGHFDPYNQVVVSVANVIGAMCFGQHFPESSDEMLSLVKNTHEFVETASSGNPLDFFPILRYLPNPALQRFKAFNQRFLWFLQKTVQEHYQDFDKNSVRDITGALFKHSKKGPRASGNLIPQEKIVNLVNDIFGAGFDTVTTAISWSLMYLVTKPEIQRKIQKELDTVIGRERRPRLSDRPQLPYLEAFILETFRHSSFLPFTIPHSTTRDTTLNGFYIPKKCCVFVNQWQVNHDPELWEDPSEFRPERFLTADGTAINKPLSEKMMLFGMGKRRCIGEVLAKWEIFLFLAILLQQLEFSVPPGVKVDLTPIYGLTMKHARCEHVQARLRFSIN
Experimental: (§1) To identify the enzymes involved in Bu metabolism, 11 microsomal batches (BD Biosciences, Stockholm, Sweden), each containing a separate cDNA-expressed enzyme, were incubated with 25μM THT. The microsomes contained FMO3, CYP1A1, CYP1A2, CYP2B6, CYP2C8, CYP2C9, CYP2C19, CYP2D6, CYP2E1, CYP3A4 or CYP4A11. Time curves (0, 5, 15, 30 and 60min) were performed at a concentration of 0.35mg protein /mL for FMO3 and 35pmol CYP/mL for the CYP enzymes. The recombinant enzymes were produced from human cDNA expressing each of them using baculovirus expression system. Baculovirus infected insect cells were used to prepare these microsomes.
(§2) Incubations were performed in triplicate and negative controls (excluding NADPH, microsomes, THT or by terminating the incubations before the addition of NADPH) were run in parallel.
(§3) To measure THT and the secondary metabolite, sulfolane, the reactions were terminated by adding dichloromethane. Samples (180μL) were added to 10μM nicotine (20μL, Merck, Hoherbrunn, Germany), used as an internal standard, before extraction. The matrix was extracted by liquid-liquid extraction with dichloromethane (equal volumes, 200μL) after 30 sec of high speed vortexing. After extraction and centrifugation at 16000 g for 10 min, the organic phase was transferred into GC-MS tubes. […] Samples (180μL) were added to 10 μM of 3-methylsulfolane (20μL, TCI, Tokyo, Japan), used as an internal standard. The matrix was lyophilized (< 1 mbar at 40°C under N2 stream) to dryness, the residue was dissolved in 10 μL water and 200 μL of ethyl acetate was added for extraction. Samples were vortexed for 30 sec at high speed and centrifuged at 16000 g for 10 min. The organic phase was transferred to GC-MS tubes.
(§4) Concentrations of THT and its metabolites were measured using GC-MS [18] after validation for use with microsomal incubations according to the international guidelines.

[2] = target: T2, CYP2C8 (Homo sapiens, UniProt P10632)
T2 construct: purchased BD Biosciences; host or cells: baculovirus infected insect cells
T2 sequence (P10632 1-490): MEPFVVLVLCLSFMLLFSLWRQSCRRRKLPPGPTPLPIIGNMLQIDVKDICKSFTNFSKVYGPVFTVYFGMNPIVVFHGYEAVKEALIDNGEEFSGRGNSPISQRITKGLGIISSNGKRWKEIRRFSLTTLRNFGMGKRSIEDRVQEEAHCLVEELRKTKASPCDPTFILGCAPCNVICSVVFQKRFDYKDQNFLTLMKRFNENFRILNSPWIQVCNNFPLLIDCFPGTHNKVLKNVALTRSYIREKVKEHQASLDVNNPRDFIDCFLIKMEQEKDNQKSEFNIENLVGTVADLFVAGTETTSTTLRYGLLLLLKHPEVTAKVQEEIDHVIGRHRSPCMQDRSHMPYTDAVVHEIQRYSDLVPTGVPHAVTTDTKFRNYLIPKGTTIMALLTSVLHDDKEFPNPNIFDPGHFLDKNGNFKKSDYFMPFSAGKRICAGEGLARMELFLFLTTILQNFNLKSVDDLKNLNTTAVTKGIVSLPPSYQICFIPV
Experimental: as §1, §2, §3, §4

[3] = target: T3, CYP2D6 (Homo sapiens, UniProt P10635)
T3 construct: purchased BD Biosciences; host or cells: baculovirus infected insect cells
T3 sequence (P10635 whole entry): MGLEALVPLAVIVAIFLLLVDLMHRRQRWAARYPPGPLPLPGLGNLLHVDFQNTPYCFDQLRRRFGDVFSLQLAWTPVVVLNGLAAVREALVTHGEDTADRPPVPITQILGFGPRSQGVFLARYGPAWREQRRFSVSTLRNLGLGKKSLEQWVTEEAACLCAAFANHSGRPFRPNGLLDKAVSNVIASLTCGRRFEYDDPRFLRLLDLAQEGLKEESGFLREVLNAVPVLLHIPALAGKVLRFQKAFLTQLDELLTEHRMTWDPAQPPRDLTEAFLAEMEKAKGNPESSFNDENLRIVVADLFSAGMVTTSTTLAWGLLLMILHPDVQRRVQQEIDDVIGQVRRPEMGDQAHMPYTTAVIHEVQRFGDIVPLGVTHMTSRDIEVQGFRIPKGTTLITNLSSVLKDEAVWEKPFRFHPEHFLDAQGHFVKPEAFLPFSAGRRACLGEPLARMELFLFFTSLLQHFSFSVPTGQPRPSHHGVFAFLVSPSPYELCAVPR
Experimental: as §1, §2, §3, §4

[4] = target: T4, CYP4A11 (Homo sapiens, UniProt Q02928)
T4 construct: purchased BD Biosciences; host or cells: baculovirus infected insect cells
T4 sequence (Q02928 5-519): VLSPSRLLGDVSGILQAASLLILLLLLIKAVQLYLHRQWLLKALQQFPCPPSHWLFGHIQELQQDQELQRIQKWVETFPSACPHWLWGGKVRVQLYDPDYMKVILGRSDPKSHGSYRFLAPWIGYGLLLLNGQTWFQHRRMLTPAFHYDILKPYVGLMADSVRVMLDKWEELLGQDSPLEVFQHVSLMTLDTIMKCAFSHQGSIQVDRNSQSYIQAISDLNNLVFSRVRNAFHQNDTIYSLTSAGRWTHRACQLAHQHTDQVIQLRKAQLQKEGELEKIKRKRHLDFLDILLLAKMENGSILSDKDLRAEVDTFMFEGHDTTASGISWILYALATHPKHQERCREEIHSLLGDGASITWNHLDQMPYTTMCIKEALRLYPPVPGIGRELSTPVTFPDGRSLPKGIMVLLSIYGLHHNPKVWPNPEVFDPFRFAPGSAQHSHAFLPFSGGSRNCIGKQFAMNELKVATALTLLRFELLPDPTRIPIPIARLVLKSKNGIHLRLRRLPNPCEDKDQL
Experimental: as §1, §2, §3, §4

Compound: C1CCSC1 [THT, tetrahydrothiophene]
- v0 [1]: 1.24 nmol/min/mL
- v0/CYP [1]: 0.04 nmol/min/pmol CYP
- v0 [2]: 2.45 nmol/min/mL
- v0/CYP [2]: 0.07 nmol/min/pmol CYP
- v0 [3]: 2.24 nmol/min/mL
- v0/CYP [3]: 0.06 nmol/min/pmol CYP
- v0 [4]: 2.52 nmol/min/mL
- v0/CYP [4]: 0.07 nmol/min/pmol CYP
